These results are taken from ChEMBL document CHEMBL5465560, “Selectivity Literature for EUbOPEN Chemogenomic Library” (2024).

Test [1] concerns the target Rho-associated protein kinase 2 (Homo sapiens, UniProt O75116). The test is described as follows: Selectivity interaction (Kinase panel (Z-LYTE Assay)) EUB0001632a ROCK2. The following applies: at 10 µM.
Test [2] addresses Cyclin-dependent kinase 7 (Homo sapiens, UniProt P50613). The experiment in a line: Selectivity interaction (KinomeScan (DiscoverX)) EUB0000595a CDK7. The following applies: at 10 µM.
The target of test [3] is Ribosomal protein S6 kinase alpha-4 (Homo sapiens) (UniProt O75676). The experiment in a line: Selectivity interaction (KinomeScan (DiscoverX)) EUB0000695a RPS6KA4. The following applies: at 100 nM.
Sequence of Ribosomal protein S6 kinase alpha-4 (Homo sapiens) (O75676 whole entry, looked up): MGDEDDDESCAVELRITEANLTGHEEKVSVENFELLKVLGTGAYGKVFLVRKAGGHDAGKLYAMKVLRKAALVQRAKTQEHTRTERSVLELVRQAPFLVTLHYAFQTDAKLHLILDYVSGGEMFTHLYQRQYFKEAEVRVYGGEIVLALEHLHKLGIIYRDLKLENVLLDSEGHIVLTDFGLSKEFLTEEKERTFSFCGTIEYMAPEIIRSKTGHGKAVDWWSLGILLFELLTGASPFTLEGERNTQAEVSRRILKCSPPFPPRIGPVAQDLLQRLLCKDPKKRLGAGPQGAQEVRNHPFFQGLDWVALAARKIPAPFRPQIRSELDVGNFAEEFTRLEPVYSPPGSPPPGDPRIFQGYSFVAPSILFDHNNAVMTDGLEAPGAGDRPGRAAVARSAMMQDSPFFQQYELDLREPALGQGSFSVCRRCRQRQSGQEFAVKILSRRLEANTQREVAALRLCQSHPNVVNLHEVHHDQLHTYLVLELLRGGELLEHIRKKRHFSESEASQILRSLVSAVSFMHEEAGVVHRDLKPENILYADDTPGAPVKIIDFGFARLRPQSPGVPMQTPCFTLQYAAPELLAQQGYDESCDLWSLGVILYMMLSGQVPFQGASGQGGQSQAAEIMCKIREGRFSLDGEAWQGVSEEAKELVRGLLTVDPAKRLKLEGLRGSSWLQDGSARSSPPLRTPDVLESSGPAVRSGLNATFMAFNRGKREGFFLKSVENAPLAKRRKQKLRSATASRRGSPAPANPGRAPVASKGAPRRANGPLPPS
The target of test [4] is Serine/threonine-protein kinase PAK 3 (Homo sapiens) (UniProt O75914). The experiment in a line: Selectivity interaction (KinomeScan (DiscoverX)) EUB0000666a PAK3. The conditions noted are these: at 10 µM.
Sequence of Serine/threonine-protein kinase PAK 3 (Homo sapiens) (O75914 whole entry, looked up): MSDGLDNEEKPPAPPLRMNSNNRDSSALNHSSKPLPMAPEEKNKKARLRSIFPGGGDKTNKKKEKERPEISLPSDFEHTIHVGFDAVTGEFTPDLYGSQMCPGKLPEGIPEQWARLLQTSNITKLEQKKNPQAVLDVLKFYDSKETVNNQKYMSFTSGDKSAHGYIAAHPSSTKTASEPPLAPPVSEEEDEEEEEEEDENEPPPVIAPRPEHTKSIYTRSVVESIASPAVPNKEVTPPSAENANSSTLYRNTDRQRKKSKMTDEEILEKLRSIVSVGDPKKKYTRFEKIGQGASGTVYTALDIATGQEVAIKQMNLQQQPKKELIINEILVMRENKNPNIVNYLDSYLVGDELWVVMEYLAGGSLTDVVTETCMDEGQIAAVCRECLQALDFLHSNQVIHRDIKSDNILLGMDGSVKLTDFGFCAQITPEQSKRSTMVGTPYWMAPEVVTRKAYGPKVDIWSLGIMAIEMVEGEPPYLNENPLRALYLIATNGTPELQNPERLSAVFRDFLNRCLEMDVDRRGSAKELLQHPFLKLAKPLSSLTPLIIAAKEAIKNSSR
Test [5] has as its target T1, Serine/threonine-protein kinase tousled-like 1 (Homo sapiens) (UniProt Q9UKI8).
T1 sequence (whole entry): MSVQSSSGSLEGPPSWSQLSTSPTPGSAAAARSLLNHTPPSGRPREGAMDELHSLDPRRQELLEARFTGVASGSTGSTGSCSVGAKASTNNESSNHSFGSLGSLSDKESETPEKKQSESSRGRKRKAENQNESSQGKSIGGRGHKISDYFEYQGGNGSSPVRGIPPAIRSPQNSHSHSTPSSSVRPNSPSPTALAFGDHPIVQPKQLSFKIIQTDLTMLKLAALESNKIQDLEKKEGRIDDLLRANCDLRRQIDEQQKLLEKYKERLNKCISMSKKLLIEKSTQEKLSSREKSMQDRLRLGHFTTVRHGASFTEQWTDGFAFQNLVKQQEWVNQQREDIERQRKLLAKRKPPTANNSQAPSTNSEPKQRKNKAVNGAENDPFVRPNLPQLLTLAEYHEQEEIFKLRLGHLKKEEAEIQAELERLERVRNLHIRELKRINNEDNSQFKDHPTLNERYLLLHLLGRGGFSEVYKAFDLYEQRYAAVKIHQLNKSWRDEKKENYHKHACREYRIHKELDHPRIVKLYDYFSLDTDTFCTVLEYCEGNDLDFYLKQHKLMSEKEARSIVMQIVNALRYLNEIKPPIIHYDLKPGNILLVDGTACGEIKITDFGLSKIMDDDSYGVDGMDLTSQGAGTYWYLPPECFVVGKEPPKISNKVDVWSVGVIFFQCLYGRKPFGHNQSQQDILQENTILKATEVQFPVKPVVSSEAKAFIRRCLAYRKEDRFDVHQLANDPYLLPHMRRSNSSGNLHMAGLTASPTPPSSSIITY
The test is described as follows: Selectivity interaction (KinomeScan (DiscoverX)) EUB0000607a TLK1. The conditions noted are these: at 10 µM.

For test [6], the target named is Fibroblast growth factor receptor 4 (Homo sapiens, UniProt P22455). The experiment in a line: Selectivity interaction (Kinase screening (Nanosyn)) EUB0000604a FGFR4.
Sequence of Fibroblast growth factor receptor 4 (P22455 22-802 limits assumed): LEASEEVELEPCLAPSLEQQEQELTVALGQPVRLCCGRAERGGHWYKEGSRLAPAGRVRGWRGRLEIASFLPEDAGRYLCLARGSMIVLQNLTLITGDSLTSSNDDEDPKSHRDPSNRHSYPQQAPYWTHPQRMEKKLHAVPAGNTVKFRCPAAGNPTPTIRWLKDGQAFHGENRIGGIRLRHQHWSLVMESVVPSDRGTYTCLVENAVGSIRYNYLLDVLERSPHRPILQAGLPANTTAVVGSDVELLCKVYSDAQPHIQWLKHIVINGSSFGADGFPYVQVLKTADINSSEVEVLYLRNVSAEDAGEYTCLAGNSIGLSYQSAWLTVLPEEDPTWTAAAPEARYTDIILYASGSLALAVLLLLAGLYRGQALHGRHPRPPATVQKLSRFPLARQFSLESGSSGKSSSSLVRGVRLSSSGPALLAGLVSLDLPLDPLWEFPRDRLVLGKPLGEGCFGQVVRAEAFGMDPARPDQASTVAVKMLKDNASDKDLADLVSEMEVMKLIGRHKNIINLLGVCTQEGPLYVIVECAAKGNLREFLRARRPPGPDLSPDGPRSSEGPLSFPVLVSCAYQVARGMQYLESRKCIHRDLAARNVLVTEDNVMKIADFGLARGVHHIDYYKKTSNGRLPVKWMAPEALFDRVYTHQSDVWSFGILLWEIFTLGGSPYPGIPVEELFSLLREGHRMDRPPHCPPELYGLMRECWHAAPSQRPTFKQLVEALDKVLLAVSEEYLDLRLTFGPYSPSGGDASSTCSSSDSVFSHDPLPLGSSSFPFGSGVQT
The target of test [7] is T2, Mitogen-activated protein kinase kinase kinase 6 (Homo sapiens) (UniProt O95382).
T2 sequence (whole entry): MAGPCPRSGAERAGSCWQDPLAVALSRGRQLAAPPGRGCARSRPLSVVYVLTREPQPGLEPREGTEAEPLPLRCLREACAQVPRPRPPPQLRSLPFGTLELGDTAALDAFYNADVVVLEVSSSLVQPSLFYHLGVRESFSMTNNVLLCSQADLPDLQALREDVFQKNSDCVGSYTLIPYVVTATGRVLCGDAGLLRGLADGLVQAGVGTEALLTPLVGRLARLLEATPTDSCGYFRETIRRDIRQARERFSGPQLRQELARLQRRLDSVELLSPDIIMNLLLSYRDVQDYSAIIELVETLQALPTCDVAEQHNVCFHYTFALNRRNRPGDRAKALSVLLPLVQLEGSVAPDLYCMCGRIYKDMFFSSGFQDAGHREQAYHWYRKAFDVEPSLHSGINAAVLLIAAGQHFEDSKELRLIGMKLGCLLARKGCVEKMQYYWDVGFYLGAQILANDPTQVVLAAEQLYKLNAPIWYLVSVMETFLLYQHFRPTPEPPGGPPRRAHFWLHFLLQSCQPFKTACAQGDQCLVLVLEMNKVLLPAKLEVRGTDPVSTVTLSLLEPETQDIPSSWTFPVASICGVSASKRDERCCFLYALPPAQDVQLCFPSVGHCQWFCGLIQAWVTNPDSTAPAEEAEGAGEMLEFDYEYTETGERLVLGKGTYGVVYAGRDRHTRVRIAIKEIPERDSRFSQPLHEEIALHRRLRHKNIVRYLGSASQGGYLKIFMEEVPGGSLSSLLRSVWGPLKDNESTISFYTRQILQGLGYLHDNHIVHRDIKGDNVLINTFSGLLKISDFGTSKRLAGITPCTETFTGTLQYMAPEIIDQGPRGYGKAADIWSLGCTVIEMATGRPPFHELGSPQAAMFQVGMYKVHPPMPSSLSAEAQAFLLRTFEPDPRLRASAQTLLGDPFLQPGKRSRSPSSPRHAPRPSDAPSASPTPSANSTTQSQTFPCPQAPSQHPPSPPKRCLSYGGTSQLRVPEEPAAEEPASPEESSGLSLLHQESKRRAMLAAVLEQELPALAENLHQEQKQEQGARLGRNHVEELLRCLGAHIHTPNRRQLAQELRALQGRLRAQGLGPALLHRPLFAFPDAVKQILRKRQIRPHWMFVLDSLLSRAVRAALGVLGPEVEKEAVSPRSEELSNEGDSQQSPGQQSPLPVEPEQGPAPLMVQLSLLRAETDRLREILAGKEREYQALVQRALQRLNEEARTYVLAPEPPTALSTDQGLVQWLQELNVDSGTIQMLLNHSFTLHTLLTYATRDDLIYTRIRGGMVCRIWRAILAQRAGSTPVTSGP
The test is described as follows: Selectivity interaction (ActivX KiNativ screen (kinase selectivity in THP-1 cell lysates)) EUB0000639a MAP3K6. Type of test: subcellular. The following applies: lysate, at 0.04 µM.

Test [8] has as its target Serine/threonine-protein kinase PAK 6 (Homo sapiens) (UniProt Q9NQU5). The test is described as follows: Selectivity interaction (Kinase panel (Invitrogen)) EUB0000639a PAK6. The conditions noted are these: at 200 nM.
Test [9] addresses Myosin light chain kinase, smooth muscle (Homo sapiens, UniProt Q15746). The experiment in a line: Selectivity interaction (Ambit KINOMEscan and KiNATiv profiling in Jurkat cells) EUB0000090b MYLK. Format: cell-based. The conditions noted are these: at 1 µM.
Test [10] deals with Mitogen-activated protein kinase 9 (Homo sapiens, UniProt P45984). The experiment in a line: Selectivity interaction (KinomeScan (DiscoverX)) EUB0000655a MAPK9. The conditions noted are these: at 10 µM.
Sequence of Mitogen-activated protein kinase 9 (P45984 whole entry, looked up): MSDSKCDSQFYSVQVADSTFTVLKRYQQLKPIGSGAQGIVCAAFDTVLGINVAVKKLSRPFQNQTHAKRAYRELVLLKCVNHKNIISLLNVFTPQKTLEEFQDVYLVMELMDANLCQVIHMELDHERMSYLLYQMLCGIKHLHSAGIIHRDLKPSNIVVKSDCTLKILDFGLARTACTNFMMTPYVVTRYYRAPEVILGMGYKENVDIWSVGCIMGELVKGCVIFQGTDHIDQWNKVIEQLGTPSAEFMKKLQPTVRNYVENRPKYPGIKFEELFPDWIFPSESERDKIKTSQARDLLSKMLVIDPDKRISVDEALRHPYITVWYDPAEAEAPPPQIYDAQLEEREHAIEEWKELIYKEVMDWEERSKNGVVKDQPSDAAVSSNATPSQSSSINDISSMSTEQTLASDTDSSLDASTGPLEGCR
For test [11], the target named is Beta-2 adrenergic receptor (Homo sapiens, UniProt P07550). The experiment in a line: Selectivity interaction (GPCR panel (PDSP screen)) EUB0001079a ADRB2. The following applies: at 10 µM.
Test [12] has as its target Serine/threonine-protein kinase pim-1 (Homo sapiens, UniProt P11309). The test is described as follows: Selectivity interaction (Millipore kinase profiler) EUB0000124b PIM1. The conditions noted are these: at 10 µM.

Sequence of Serine/threonine-protein kinase PAK 6 (Homo sapiens) (Q9NQU5 whole entry, looked up): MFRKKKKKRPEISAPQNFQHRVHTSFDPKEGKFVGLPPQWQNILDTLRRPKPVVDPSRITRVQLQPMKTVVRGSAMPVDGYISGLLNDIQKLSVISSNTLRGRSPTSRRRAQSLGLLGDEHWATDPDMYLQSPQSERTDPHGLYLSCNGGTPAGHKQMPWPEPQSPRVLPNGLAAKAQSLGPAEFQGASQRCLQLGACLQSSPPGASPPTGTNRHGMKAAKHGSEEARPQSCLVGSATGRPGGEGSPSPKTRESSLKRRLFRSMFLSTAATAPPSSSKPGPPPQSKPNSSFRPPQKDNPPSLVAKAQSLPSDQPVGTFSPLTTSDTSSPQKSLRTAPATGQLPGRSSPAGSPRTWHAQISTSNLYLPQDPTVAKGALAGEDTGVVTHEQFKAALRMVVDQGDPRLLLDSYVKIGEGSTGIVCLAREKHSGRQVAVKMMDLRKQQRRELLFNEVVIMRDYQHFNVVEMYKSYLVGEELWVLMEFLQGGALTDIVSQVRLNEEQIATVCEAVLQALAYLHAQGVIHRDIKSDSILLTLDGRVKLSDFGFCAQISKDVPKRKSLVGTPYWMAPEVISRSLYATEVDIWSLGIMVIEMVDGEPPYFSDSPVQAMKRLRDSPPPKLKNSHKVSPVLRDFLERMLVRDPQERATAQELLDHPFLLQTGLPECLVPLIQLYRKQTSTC
Sequence of Serine/threonine-protein kinase pim-1 (P11309 whole entry, looked up): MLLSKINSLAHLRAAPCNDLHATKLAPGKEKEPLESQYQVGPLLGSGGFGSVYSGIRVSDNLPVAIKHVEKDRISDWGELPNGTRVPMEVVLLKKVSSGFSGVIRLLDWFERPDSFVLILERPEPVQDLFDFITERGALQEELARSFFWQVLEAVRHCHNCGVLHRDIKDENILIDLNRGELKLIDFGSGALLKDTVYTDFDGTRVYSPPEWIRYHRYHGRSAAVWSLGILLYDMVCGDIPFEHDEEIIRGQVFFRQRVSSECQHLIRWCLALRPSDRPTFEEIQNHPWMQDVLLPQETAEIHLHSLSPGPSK
Sequence of Rho-associated protein kinase 2 (O75116 whole entry, looked up): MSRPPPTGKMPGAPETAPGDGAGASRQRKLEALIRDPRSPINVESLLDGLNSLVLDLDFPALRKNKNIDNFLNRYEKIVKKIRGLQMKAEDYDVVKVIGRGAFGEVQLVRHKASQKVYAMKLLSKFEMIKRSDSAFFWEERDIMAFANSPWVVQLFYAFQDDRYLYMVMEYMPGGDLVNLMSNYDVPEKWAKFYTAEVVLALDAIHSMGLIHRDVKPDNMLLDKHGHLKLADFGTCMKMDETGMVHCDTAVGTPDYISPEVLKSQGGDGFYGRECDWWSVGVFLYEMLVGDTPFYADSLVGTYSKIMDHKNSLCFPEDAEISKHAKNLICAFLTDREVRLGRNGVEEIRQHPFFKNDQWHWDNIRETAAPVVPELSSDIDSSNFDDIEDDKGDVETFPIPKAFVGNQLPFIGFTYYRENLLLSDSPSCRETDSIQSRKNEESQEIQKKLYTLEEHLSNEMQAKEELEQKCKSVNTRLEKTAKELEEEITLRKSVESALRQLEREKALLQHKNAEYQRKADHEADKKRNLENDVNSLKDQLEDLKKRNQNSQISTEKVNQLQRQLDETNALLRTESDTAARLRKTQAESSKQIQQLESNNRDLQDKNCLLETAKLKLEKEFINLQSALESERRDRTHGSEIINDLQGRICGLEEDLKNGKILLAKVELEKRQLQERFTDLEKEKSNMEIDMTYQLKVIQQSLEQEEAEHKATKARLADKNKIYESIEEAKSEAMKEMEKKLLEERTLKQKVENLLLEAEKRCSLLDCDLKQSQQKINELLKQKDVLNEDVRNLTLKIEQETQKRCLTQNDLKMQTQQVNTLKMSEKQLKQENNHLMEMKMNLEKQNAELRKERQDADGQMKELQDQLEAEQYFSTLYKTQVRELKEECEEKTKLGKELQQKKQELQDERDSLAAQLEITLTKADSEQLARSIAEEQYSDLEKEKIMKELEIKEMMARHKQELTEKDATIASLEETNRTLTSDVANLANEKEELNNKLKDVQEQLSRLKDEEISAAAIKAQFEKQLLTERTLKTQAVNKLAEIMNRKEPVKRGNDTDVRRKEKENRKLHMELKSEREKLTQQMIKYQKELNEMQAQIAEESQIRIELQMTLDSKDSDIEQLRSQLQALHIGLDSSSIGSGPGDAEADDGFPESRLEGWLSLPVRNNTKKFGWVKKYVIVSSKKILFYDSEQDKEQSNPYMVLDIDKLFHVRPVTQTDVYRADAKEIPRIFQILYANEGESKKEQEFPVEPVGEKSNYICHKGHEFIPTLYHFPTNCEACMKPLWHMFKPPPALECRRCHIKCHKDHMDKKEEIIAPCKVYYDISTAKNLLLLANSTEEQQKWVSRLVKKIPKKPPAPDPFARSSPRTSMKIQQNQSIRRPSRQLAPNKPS

With `Cn1cc(-n2cnc3c(NCc4nc5cc(Cl)c(Cl)cc5[nH]4)nc(N4CCOCC4)nc32)cn1`, in [1], the % of control turned out to be 3.57%.
In [2], `COCC(=O)NC/C=C/c1ccc2ncnc(Nc3ccc(Oc4ccc(C)nc4)c(C)c3)c2c1` [CP-724714] displayed a % of control of 100%.
Take `Cc1cc(F)c(C(=O)Nc2cccc(-c3nncn3C(C)C)n2)cc1-n1cnc(C2CC2)c1`: the % of control in [3] was 100%.
In turn, `O=C(NOC[C@H](O)CO)c1ccc(F)c(F)c1Nc1ccc(I)cc1F` showed a % of control in test [4] of 100%.
Turning to `CNC(=O)Nc1ccc(-c2nc(N3CC4CCC(C3)O4)c3cnn(C4CCC5(CC4)OCCO5)c3n2)cc1`, the % of control in test [5] amounted to 86%.
Regarding `Cc1cnc(Nc2ccc(F)cc2Cl)nc1-c1c[nH]c(C(=O)N[C@H](CO)c2cccc(Cl)c2)c1`, in test [6], the % of inhibition came to 0.3%.
Turning to `CC[C@@H]1[C@H](F)C(=O)N[C@@H]1COc1nccc2cc(C(N)=O)c(OC)cc12` [ZIMLOVISERTIB], the % of inhibition amounted to 3.6% in [7] and 5.16% in test [8].
Take `CN(C)C/C=C/C(=O)Nc1ccc(C(=O)N2CCCC(Nc3ncc(Cl)c(-c4c[nH]c5ccccc45)n3)C2)cc1` (configuration not stated): in test [9], the % of control came to 78%.
In [10], `CN(C)CCOc1ccc(-c2nc(-c3ccncc3)c(-c3ccc4c(c3)CC/C4=N\O)[nH]2)cc1` came in with a % of control of 5.1%.
For `Nc1cnc(N2CCc3cc(S(=O)(=O)Nc4c(F)cc(Cl)cc4F)cc(N4CCCC4=O)c32)nc1` [TP-020n], the % of inhibition in test [11] was -3.08%.
For the molecule `CC(=O)Nc1cccc(-n2c(=O)n(C3CC3)c(=O)c3c(Nc4ccc(I)cc4F)n(C)c(=O)c(C)c32)c1`, the % of control in [12] was found to be 94%.
